In patent publication US12220440B2, “Drug composition, method for treating infection, disinfecting composition, and drug adjuvant” (priority 2022, dated 2025):
Converted amounts (≈) assume the structure as drawn. Where two headings read alike, the source gives them in different places. Peptide text beside a SMILES is read from it.

How the values were obtained:
Type in all cases: cell-based
[1] = tested on: E. coli (colistin-resistant); experiment: MIC, colistin-resistant E. coli clinical isolates, with and without otilonium bromide; details: Escherichia coli
E. coli J53 = experiment: Ca2+ / Mg2+ MIC-dependency in cation-supplemented MHB; details: 37° C., 16 hours
Method: For FIGS. 5c-5d, colistin-susceptible E. coli J53 is treated with colistin and colistin+Ob as indicated in MHB supplemented with different concentrations of Mg^2+ and Ca^2+ ions. The incubation is conducted at 37° C. for 16 hours.
Accordingly, it is believed that the addition of a chelant; or a chelant for divalent ions; or a divalent cation chelant, may further improve the activity of the drug formulation, method of use/treatment, disinfection composition, etc. of the present invention.

[2] = tested on: colistin-susceptible E. coli; experiment: Time-kill curves
Method: (§1) However, the effective bactericidal concentration of colistin could be reduced to 8 μg/ml in the presence of 20 μg/ml of otilonium bromide. For colistin-susceptible E. coli, 8 μg/ml of colistin is required to eradicate the strains. However, in the presence of 20 μg/ml of otilonium bromide 1 μg/ml colistin is sufficient to achieve complete eradication of the organism. […] Thus, without intending to be limited by theory, it is believed that this synergistic mechanism is not limited to the inhibition of the colistin resistance mechanism.

[3] = tested on: colistin-resistant E. coli; experiment: Time-kill curves
Method: as §1

A. baumannii 17978 = experiment: Killing of starvation-induced tolerant cells; details: with otilonium bromide, 24-hour treatment
Method: (§2) Starvation-induced bacterial sub-population tolerant cells of colistin-resistant and colistin-susceptible E. coli and A. baumannii strains are tested against the bactericidal effect of the combination of otilonium bromide and colistin. […] The incubation temperature is 37° C. Ob and colistin are added at the same time.

[4] = tested on: colistin-susceptible E. coli J53; experiment: Killing of starvation-induced tolerant cells; details: with otilonium bromide, 24-hour treatment
Method: as §2

E. coli Bw25113 = experiment: MIC, colistin-susceptible E. coli, with and without otilonium bromide; details: Escherichia coli
[5] = tested on: P. aeruginosa (colistin-susceptible); experiment: MIC, colistin-susceptible P. aeruginosa isolates, with and without otilonium bromide; details: Pseudomonas aeruginosa
[6] = in the presence of 20 μg/ml of otilonium bromide

`CCC(C)CCCC(=O)N[C@@H](CCN)C(=O)N[C@H](C(=O)N[C@@H](CCN)C(=O)N[C@H]1CCNC(=O)[C@H]([C@@H](C)O)NC(=O)[C@H](CCN)NC(=O)[C@H](CCN)NC(=O)[C@H](CC(C)C)NC(=O)[C@@H](CC(C)C)NC(=O)[C@H](CCN)NC1=O)[C@@H](C)O` (stereo partly drawn) [Colistin] (HELM PEPTIDE1{[CCC(C)CCCC(=O)[*:2]].[Dab].T.[Dab].[Dab].[Dab].[dL].L.[Dab].[Dab].T}$PEPTIDE1,PEPTIDE1,5:R3-11:R2$$$V2.0) showed an MIC ([1]; E. coli WZ3920, colistin-resistant, colistin alone, read-out: Colistin MIC, Colistin) of 4 µg/mL (≈ 3.46 µM), an MIC ([1]; E. coli WZ3920, colistin-resistant, in the presence of 10 ug/ml Ob, read-out: Colistin MIC, Colistin + 10 ug/ml Ob) of 2 µg/mL and an MIC ([1]; E. coli WZ3920, colistin-resistant, in the presence of 20 ug/ml Ob, read-out: Colistin MIC, Colistin + 20 ug/ml Ob) of no more than 0.25 µg/mL. It also gave an MIC ([1]; E. coli WZ3951, colistin-resistant, colistin alone, read-out: Colistin MIC, Colistin) of 16 µg/mL (≈ 13.8 µM), an MIC ([1]; E. coli WZ3951, colistin-resistant, in the presence of 10 ug/ml Ob, read-out: Colistin MIC, Colistin + 10 ug/ml Ob) of 8 µg/mL and an MIC ([1]; E. coli WZ3951, colistin-resistant, in the presence of 20 ug/ml Ob, read-out: Colistin MIC, Colistin + 20 ug/ml Ob) of 2 µg/mL. It also gave an MIC ([1]; E. coli WZ3955, colistin-resistant, colistin alone, read-out: Colistin MIC, Colistin) of 8 µg/mL (≈ 6.92 µM), an MIC ([1]; E. coli WZ3955, colistin-resistant, in the presence of 10 ug/ml Ob, read-out: Colistin MIC, Colistin + 10 ug/ml Ob) of 4 µg/mL and an MIC ([1]; E. coli WZ3955, colistin-resistant, in the presence of 20 ug/ml Ob, read-out: Colistin MIC, Colistin + 20 ug/ml Ob) of 1 µg/mL. It also gave an MIC ([1]; E. coli X2169, colistin-resistant, colistin alone, read-out: Colistin MIC, Colistin) of 16 µg/mL (≈ 13.8 µM), an MIC ([1]; E. coli X2169, colistin-resistant, in the presence of 10 ug/ml Ob, read-out: Colistin MIC, Colistin + 10 ug/ml Ob) of 4 µg/mL and an MIC ([1]; E. coli X2169, colistin-resistant, in the presence of 20 ug/ml Ob, read-out: Colistin MIC, Colistin + 20 ug/ml Ob) of 2 µg/mL. For the same compound, the “effect of supplemented Ca2+ and Mg2+ on MIC” value (E. coli J53) was “increase the MIC”, the “colistin required to eradicate the strains (time-kill)” value ([2]; colistin alone) was 8 µg/mL and the “colistin sufficient for complete eradication (time-kill)” value [2, 6] was 1 µg/mL. The “colistin concentration inhibiting growth (time-kill)” value ([3]; colistin alone) was no less than 32 µg/mL, the “effective bactericidal concentration of colistin (time-kill)” value [3, 6] was 8 µg/mL and the “concentration of colistin required to completely eradicate tolerant sub-population” value (A. baumannii 17978) was 1 µg/mL. For the same compound, the “concentration of colistin required to completely eradicate tolerant sub-population” value [4] was 1 µg/mL, the MIC (E. coli Bw25113; colistin alone, read-out: Colistin MIC, Colistin) was 2 µg/mL (≈ 1.73 µM) and the MIC (E. coli Bw25113; in the presence of 10 ug/ml Ob, read-out: Colistin MIC, Colistin + 10 ug/ml Ob) was 0.03 µg/mL. The MIC (E. coli Bw25113; in the presence of 20 ug/ml Ob, read-out: Colistin MIC, Colistin + 20 ug/ml Ob) was no more than 0.015 µg/mL, the MIC ([5]; P. aeruginosa PA01, colistin-susceptible, colistin alone, read-out: Colistin MIC, Colistin) was 2 µg/mL (≈ 1.73 µM) and the MIC ([5]; P. aeruginosa PA01, colistin-susceptible, in the presence of 10 ug/ml Ob, read-out: Colistin MIC, Colistin + 10 ug/ml Ob) was 0.5 µg/mL. For the same compound, the MIC ([5]; P. aeruginosa PA01, colistin-susceptible, in the presence of 20 ug/ml Ob, read-out: Colistin MIC, Colistin + 20 ug/ml Ob) was 0.25 µg/mL, the MIC ([5]; P. aeruginosa PAER 2011-3010, colistin-susceptible, colistin alone, read-out: Colistin MIC, Colistin) was 2 µg/mL (≈ 1.73 µM) and the MIC ([5]; P. aeruginosa PAER 2011-3010, colistin-susceptible, in the presence of 10 ug/ml Ob, read-out: Colistin MIC, Colistin + 10 ug/ml Ob) was 1 µg/mL. For the same compound, the MIC ([5]; P. aeruginosa PAER 2011-3010, colistin-susceptible, in the presence of 20 ug/ml Ob, read-out: Colistin MIC, Colistin + 20 ug/ml Ob) was 0.25 µg/mL, the MIC ([5]; P. aeruginosa PAER 2011-3252, colistin-susceptible, colistin alone, read-out: Colistin MIC, Colistin) was 2 µg/mL (≈ 1.73 µM) and the MIC ([5]; P. aeruginosa PAER 2011-3252, colistin-susceptible, in the presence of 10 ug/ml Ob, read-out: Colistin MIC, Colistin + 10 ug/ml Ob) was 0.5 µg/mL. The MIC ([5]; P. aeruginosa PAER 2011-3252, colistin-susceptible, in the presence of 20 ug/ml Ob, read-out: Colistin MIC, Colistin + 20 ug/ml Ob) was 0.25 µg/mL, the MIC ([5]; P. aeruginosa PAER 2012-1527, colistin-susceptible, colistin alone, read-out: Colistin MIC, Colistin) was 2 µg/mL (≈ 1.73 µM) and the MIC ([5]; P. aeruginosa PAER 2012-1527, colistin-susceptible, in the presence of 10 ug/ml Ob, read-out: Colistin MIC, Colistin + 10 ug/ml Ob) was 2 µg/mL. It also gave an MIC ([5]; P. aeruginosa PAER 2012-1527, colistin-susceptible, in the presence of 20 ug/ml Ob, read-out: Colistin MIC, Colistin + 20 ug/ml Ob) of 0.5 µg/mL, an MIC ([5]; P. aeruginosa PAERC 10.296, colistin-susceptible, colistin alone, read-out: Colistin MIC, Colistin) of 2 µg/mL (≈ 1.73 µM) and an MIC ([5]; P. aeruginosa PAERC 10.296, colistin-susceptible, in the presence of 10 ug/ml Ob, read-out: Colistin MIC, Colistin + 10 ug/ml Ob) of 0.0625 µg/mL. The MIC ([5]; P. aeruginosa PAERC 10.296, colistin-susceptible, in the presence of 20 ug/ml Ob, read-out: Colistin MIC, Colistin + 20 ug/ml Ob) was 0.0625 µg/mL, the MIC ([5]; P. aeruginosa PAERC 11.2309, colistin-susceptible, colistin alone, read-out: Colistin MIC, Colistin) was 2 µg/mL (≈ 1.73 µM) and the MIC ([5]; P. aeruginosa PAERC 11.2309, colistin-susceptible, in the presence of 10 ug/ml Ob, read-out: Colistin MIC, Colistin + 10 ug/ml Ob) was 0.5 µg/mL. For the same compound, the MIC ([5]; P. aeruginosa PAERC 11.2309, colistin-susceptible, in the presence of 20 ug/ml Ob, read-out: Colistin MIC, Colistin + 20 ug/ml Ob) was 2 µg/mL, the MIC ([5]; P. aeruginosa PAERC 11.236, colistin-susceptible, colistin alone, read-out: Colistin MIC, Colistin) was 2 µg/mL (≈ 1.73 µM) and the MIC ([5]; P. aeruginosa PAERC 11.236, colistin-susceptible, in the presence of 10 ug/ml Ob, read-out: Colistin MIC, Colistin + 10 ug/ml Ob) was 0.5 µg/mL. It also gave an MIC ([5]; P. aeruginosa PAERC 11.236, colistin-susceptible, in the presence of 20 ug/ml Ob, read-out: Colistin MIC, Colistin + 20 ug/ml Ob) of 0.5 µg/mL, an MIC ([5]; P. aeruginosa PAERC 11.603, colistin-susceptible, colistin alone, read-out: Colistin MIC, Colistin) of 2 µg/mL (≈ 1.73 µM) and an MIC ([5]; P. aeruginosa PAERC 11.603, colistin-susceptible, in the presence of 10 ug/ml Ob, read-out: Colistin MIC, Colistin + 10 ug/ml Ob) of 0.5 µg/mL. It also gave an MIC ([5]; P. aeruginosa PAERC 11.603, colistin-susceptible, in the presence of 20 ug/ml Ob, read-out: Colistin MIC, Colistin + 20 ug/ml Ob) of 0.25 µg/mL, an MIC ([5]; P. aeruginosa PAERC 12.1478, colistin-susceptible, colistin alone, read-out: Colistin MIC, Colistin) of 2 µg/mL (≈ 1.73 µM) and an MIC ([5]; P. aeruginosa PAERC 12.1478, colistin-susceptible, in the presence of 10 ug/ml Ob, read-out: Colistin MIC, Colistin + 10 ug/ml Ob) of 0.5 µg/mL. For the same compound, the MIC ([5]; P. aeruginosa PAERC 12.1478, colistin-susceptible, in the presence of 20 ug/ml Ob, read-out: Colistin MIC, Colistin + 20 ug/ml Ob) was 0.125 µg/mL.
